# According to ChEMBL document CHEMBL1649488, “In vitro activities of echinocandins against Candida krusei determined by three methods: MIC and minimal fungicidal concentration measurements and time-kill studies” (2009):
# Starred links: 1 amine or outer side, 2 acyl side, 3 side chain; linkers in the order of their positions; H or OH if unused. Positions of bridges follow the written chain, without caps; N, C: chain ends. Non-standard residues stand in square brackets, D forms with d. Residues, ends and D or L forms follow the SMILES beside them. *: point of attachment. pTerphenylCO(4''-OnC5H11) = CCCCCOc1ccc(-c2ccc(-c3ccc(C(=O)*)cc3)cc2)cc1; Orn(4R-OH,5R-OH) = O=C([C@H](C[C@@H](O)[C@@H](O)N[*:3])N[*:1])[*:2]; hTyr(3S-OH,4S-OH) = N[C@H](C(=O)O)[C@H](O)[C@@H](O)c1ccc(O)cc1; Pro(3S-OH,4S-Me) = C[C@H]1CN[C@H](C(=O)O)[C@H]1O; Hyp = O=C(O)[C@@H]1C[C@@H](O)CN1
# Tests used:
# Type in all cases: functional
# [1] = test system: Pichia kudriavzevii; assay: Antifungal activity against Candida krusei ATCC 6258 bloodstream forms assessed as minimum concentration producing >= 100% growth reduction after 48 hrs by M27-A3 microdilution method; settings: ATCC 6258, 48 h
# [2] = test system: Pichia kudriavzevii; assay: Fungicidal activity against Candida krusei CY118 bloodstream forms after 24 hrs by time-kill analysis; settings: CY118, 24 h
# [3] = test system: Pichia kudriavzevii; assay: Antifungal activity against Candida krusei ATCC 6258 bloodstream forms assessed as time to achieve 99.9% fungal growth reduction at 8 mg/L by time-kill analysis
# [4] = test system: Pichia kudriavzevii; assay: Antifungal activity against Candida krusei ATCC 6258 bloodstream forms assessed as time to achieve 99.9% fungal growth reduction at 0.12 mg/L by time-kill analysis
# [5] = test system: Pichia kudriavzevii; assay: Antifungal activity against Candida krusei ATCC 6258 bloodstream forms assessed as time to achieve 50% fungal growth reduction at 0.12 mg/L by time-kill analysis
# [6] = test system: Pichia kudriavzevii; assay: Antifungal activity against Candida krusei ATCC 6258 bloodstream forms assessed as minimum concentration producing >= 50% growth reduction after 24 hrs by M27-A3 microdilution method; settings: ATCC 6258, 24 h
# [7] = test system: Pichia kudriavzevii; assay: Antifungal activity against Candida krusei ATCC 6258 bloodstream forms assessed as minimum concentration producing >= 50% growth reduction after 48 hrs by M27-A3 microdilution method; settings: ATCC 6258, 48 h
# [8] = test system: Pichia kudriavzevii; assay: Antifungal activity against Candida krusei ATCC 6258 bloodstream forms assessed as time to achieve 90% fungal growth reduction at 0.5 mg/L by time-kill analysis
# [9] = test system: Pichia kudriavzevii; assay: Fungicidal activity against Candida krusei CK1 bloodstream forms after 24 hrs by time-kill analysis; settings: CK1, 24 h
# [10] = test system: Pichia kudriavzevii; assay: Antifungal activity against Candida krusei EU220 bloodstream forms after 24 hrs by time-kill analysis; settings: EU220, 24 h
# [11] = test system: Pichia kudriavzevii; assay: Antifungal activity against Candida krusei EU123 bloodstream forms after 24 hrs by time-kill analysis; settings: EU123, 24 h
# [12] = test system: Pichia kudriavzevii; assay: Antifungal activity against Candida krusei ATCC 6258 bloodstream forms assessed as time to achieve 99% fungal growth reduction at 8 mg/L by time-kill analysis
# [13] = test system: Pichia kudriavzevii; assay: Antifungal activity against Candida krusei CK6 bloodstream forms after 24 hrs by time-kill analysis; settings: CK6, 24 h
# [14] = test system: Pichia kudriavzevii; assay: Antifungal activity against Candida krusei ATCC 6258 bloodstream forms assessed as time to achieve 90% fungal growth reduction at 0.12 mg/L by time-kill analysis
# [15] = test system: Pichia kudriavzevii; assay: Fungicidal activity against Candida krusei EU220 bloodstream forms after 24 hrs by time-kill analysis; settings: EU220, 24 h
# [16] = test system: Pichia kudriavzevii; assay: Antifungal activity against Candida krusei CY118 bloodstream forms after 24 hrs by time-kill analysis; settings: CY118, 24 h
# [17] = test system: Pichia kudriavzevii; assay: Antifungal activity against Candida krusei CK18 bloodstream forms after 24 hrs by time-kill analysis; settings: CK18, 24 h
# [18] = test system: Pichia kudriavzevii; assay: Fungicidal activity against Candida krusei CK2 bloodstream forms after 24 hrs by time-kill analysis; settings: CK2, 24 h
# [19] = test system: Pichia kudriavzevii; assay: Antifungal activity against Candida krusei ATCC 6258 bloodstream forms assessed as time to achieve 50% fungal growth reduction at 0.5 mg/L by time-kill analysis
# [20] = test system: Pichia kudriavzevii; assay: Antifungal activity against Candida krusei ATCC 6258 bloodstream forms assessed as time to achieve 99% fungal growth reduction at 0.12 mg/L by time-kill analysis
# [21] = test system: Pichia kudriavzevii; assay: Antifungal activity against Candida krusei ATCC 6258 bloodstream forms assessed as time to achieve 90% fungal growth reduction at 2 mg/L by time-kill analysis
# [22] = test system: Pichia kudriavzevii; assay: Fungicidal activity against Candida krusei CK6 bloodstream forms after 24 hrs by time-kill analysis; settings: CK6, 24 h
# [23] = test system: Pichia kudriavzevii; assay: Fungicidal activity against Candida krusei CK18 bloodstream forms after 24 hrs by time-kill analysis; settings: CK18, 24 h
# [24] = test system: Pichia kudriavzevii; assay: Antifungal activity against Candida krusei ATCC 6258 bloodstream forms assessed as time to achieve 99% fungal growth reduction at 0.5 mg/L by time-kill analysis
# [25] = test system: Pichia kudriavzevii; assay: Antifungal activity against Candida krusei ATCC 6258 bloodstream forms assessed as time to achieve 90% fungal growth reduction at 8 mg/L by time-kill analysis
# [26] = test system: Pichia kudriavzevii; assay: Fungicidal activity against Candida krusei ATCC 6258 bloodstream forms after 48 hrs by M27-A3 microdilution method
# [27] = test system: Pichia kudriavzevii; assay: Antifungal activity against Candida krusei ATCC 6258 bloodstream forms assessed as time to achieve 99% fungal growth reduction at 2 mg/L by time-kill analysis
# [28] = test system: Pichia kudriavzevii; assay: Antifungal activity against Candida krusei CK1 bloodstream forms after 24 hrs by time-kill analysis; settings: CK1, 24 h
# [29] = test system: Pichia kudriavzevii; assay: Fungicidal activity against Candida krusei EU123 bloodstream forms after 24 hrs by time-kill analysis; settings: EU123, 24 h
# [30] = test system: Pichia kudriavzevii; assay: Antifungal activity against Candida krusei ATCC 6258 bloodstream forms after 24 hrs by time-kill analysis; settings: ATCC 6258, 24 h
# [31] = test system: Pichia kudriavzevii; assay: Antifungal activity against Candida krusei CK2 bloodstream forms after 24 hrs by time-kill analysis; settings: CK2, 24 h
# [32] = test system: Pichia kudriavzevii; assay: Antifungal activity against Candida krusei ATCC 6258 bloodstream forms assessed as minimum concentration producing >= 100% growth reduction after 24 hrs by M27-A3 microdilution method; settings: ATCC 6258, 24 h
# [33] = test system: Pichia kudriavzevii; assay: Fungicidal activity against Candida krusei ATCC 6258 bloodstream forms after 24 hrs by time-kill analysis; settings: ATCC 6258, 24 h
# [34] = test system: Pichia kudriavzevii; assay: Antifungal activity against Candida krusei ATCC 6258 bloodstream forms assessed as time to achieve 50% fungal growth reduction at 2 mg/L by time-kill analysis
# [35] = test system: Pichia kudriavzevii; assay: Antifungal activity against Candida krusei ATCC 6258 bloodstream forms assessed as time to achieve 50% fungal growth reduction at 8 mg/L by time-kill analysis
# [36] = test system: Pichia kudriavzevii; assay: Antifungal activity against Candida krusei ATCC 6258 bloodstream forms assessed as time to achieve 99.9% fungal growth reduction at 0.5 mg/L by time-kill analysis
# [37] = test system: Pichia kudriavzevii; assay: Antifungal activity against Candida krusei ATCC 6258 bloodstream forms assessed as time to achieve 99.9% fungal growth reduction at 2 mg/L by time-kill analysis
smiles,measurement,setting,value
"CCCCCOc1ccc(-c2ccc(-c3ccc(C(=O)N[C@H]4C[C@@H](O)[C@@H](O)NC(=O)[C@@H]5[C@@H](O)[C@@H](C)CN5C(=O)[C@H]([C@@H](C)O)NC(=O)[C@H]([C@H](O)[C@@H](O)c5ccc(O)cc5)NC(=O)[C@@H]5C[C@@H](O)CN5C(=O)[C@H]([C@@H](C)O)NC4=O)cc3)cc2)cc1 [ANIDULAFUNGIN] ({pTerphenylCO(4''-OnC5H11)}-[Orn(4R-OH,5R-OH)]T[Hyp][hTyr(3S-OH,4S-OH)]T[Pro(3S-OH,4S-Me)]; lactam 1-C)",MIC50,[1],0.25 µg/mL
same,MIC90,[1],0.5 µg/mL
same,MFC,[2],8 µg/mL
same,Time,[3],20.68 h
same,Time,[4],>48 h
same,Time,[5],7.7 h
same,MIC50,[6],0.12 µg/mL
same,MIC90,[6],0.12 µg/mL
same,MIC50,[7],0.12 µg/mL
same,MIC90,[7],0.25 µg/mL
same,Time,[8],22.4 h
same,MFC,[9],0.5 µg/mL
same,MIC,[10],0.12 µg/mL
same,MIC,[11],0.12 µg/mL
same,Time,[12],13.8 h
same,MIC,[13],0.12 µg/mL
same,Time,[14],25.5 h
same,MFC,[15],0.12 µg/mL
same,MIC,[16],0.5 µg/mL
same,MIC,[17],0.12 µg/mL
same,MFC,[18],0.5 µg/mL
same,Time,[19],6.7 h
same,Time,[20],>48 h
same,Time,[21],6.4 h
same,MFC,[22],0.25 µg/mL
same,MFC,[23],0.5 µg/mL
same,Time,[24],>48 h
same,Time,[25],6.9 h
same,MFC50,[26],0.25 µg/mL
same,MFC90,[26],0.5 µg/mL
same,MFC,"[26]; Pichia kudriavzevii, ATCC 6258, 48 h",0.12 µg/mL
same,Time,[27],12.7 h
same,MIC,[28],0.12 µg/mL
same,MFC,[29],0.5 µg/mL
same,MIC,[30],0.03 µg/mL
same,MIC,[31],0.06 µg/mL
same,MIC50,[32],0.12 µg/mL
same,MIC90,[32],0.25 µg/mL
same,MFC,[33],0.25 µg/mL
same,Time,[34],1.9 h
same,Time,[35],2.1 h
same,Time,[36],>48 h
same,Time,[37],19.1 h
